In patent publication US6864285B1, “Covalent derivatives of alkanolamides of monocarboxylic and dicarboxylic acids functionally active on the CB2 cannabinoid receptor” (Innovet Italia S.r.l., priority 1999, dated 2005):
Converted amounts (≈) assume the structure as drawn. Read-outs that look alike come from different tables or passages of the source.

Assays:
[1] = Solubility in water and in organic solvents (chemical and physical characteristics); conditions: in words
physchem = conditions: organic solvent or mixture
CB2 receptor [2] = target: T1, CB2 receptor (Rattus norvegicus, UniProt Q9QZN9); assay: Binding of [3H]WIN55,212-2 to membranes of RBL-2H3+ cells; conditions: cell membranes, 300 pM ligand, 90' at 30° C.; read-out: Ki CB2 receptor RBL-2H3 + cells Lig. [3H]WIN55, 212-2
T1 construct: endogenous in cells; host or cells: rat RBL-2H3+ leukemic basophilic cells
T1 sequence (Q9QZN9 1-360): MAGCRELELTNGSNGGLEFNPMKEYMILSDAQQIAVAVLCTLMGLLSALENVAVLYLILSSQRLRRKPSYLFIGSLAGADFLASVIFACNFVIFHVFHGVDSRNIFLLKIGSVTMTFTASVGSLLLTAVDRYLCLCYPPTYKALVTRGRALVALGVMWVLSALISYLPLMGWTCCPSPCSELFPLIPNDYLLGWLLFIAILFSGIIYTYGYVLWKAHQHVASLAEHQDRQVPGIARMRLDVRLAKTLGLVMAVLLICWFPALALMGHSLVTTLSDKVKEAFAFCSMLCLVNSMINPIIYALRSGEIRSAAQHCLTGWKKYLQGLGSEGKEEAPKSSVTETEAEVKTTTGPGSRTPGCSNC
Text: (§1) Effect of alkanolamide molecules on the binding of the synthetic ligands of the CB2 and CB1 cannabinoid receptors, respectively.
(§2) Rat RBL-2H3+ leukemic basophilic cells, which selectively express the cannabinoid CB2 receptor, and mouse N18TG2 neuroblastoma cells which selectively express the CB1 cannabinoid receptor were used. The cells were cultivated as described above (Facci L. et al. (1995) Proc. Natl: Acad: Sci. U.S.A. 92:: 3376-3380; Bisogno T. et al. 1997 J. Biol. Chem., 272: 3315-3323). WIN 55,212.2 was used as the selectively agonist synthetic ligand for the CB2 receptor.
HU-210 was used as the selective […] for the CB2 receptor.
(§3) [^3H]SR141716A (55 Ci/mmol) was supplied by Amersham; [^3H]WIN55,212-2 (43 Ci/mmol) was supplied by NEN. The binding tests were performed with membranes of the cells resuspended in 50 mMol Tris pH 7.0 buffer; 2.5 mMol MgCl2, 0.8 mMol EDTA; 0.05% bovine serum albumin (BSA); 0.01% ethanol, in the presence of 100 μM of phenyl-methyl-sulphonyl fluoride (PMSF-Sigma), with the use, of 300 pM of [^3H]SR141716A and of [^3H]WIN55,212-2, respectively, as the ligand.
(§4) The membranes were incubated for 90′ at 30° C. and filtered on glass microfibre filters (GFC-Whatman) and the radioactivity was detected by liquid scintillation. The specific binding was calculated with the use of either 10 μM SR141716A or 10 μM HU-210.
(§5) The Ki values were calculated by Chang-Prusoff's equation and expressed as concentration μM.

[3] = Lipid/water partition parameter RM from thin-film chromatography on silica gel; assay type: physicochemical
Method: The chemical and physical characteristics of the derivatives according to the invention were evaluated by quantitative measurement of the lipid/water partition parameter.
A useful parameter for evaluating the properties of a compound in relation to its possible absorption is in fact constituted by the coefficient of partition between the lipid phase and the aqueous phase, which is considered to be an expression of its lipophilicity and its degree of hydrophilicity. […] For the purpose of evaluating the characteristics of the derivatives of the invention, the partition parameter RM between the lipid and the aqueous phase, extrapolated from thin-film partition chromatography, was calculated; this parameter is commonly used to evaluate the lipophilic characteristics of compounds (Tomlinson E. J. Chromatogr. 1975, 113, 1) and is commonly used, for example, for local anaesthetics, in which a correlation has been shown between this parameter and biological activity (Bachrata M. et al. J. Chromatogr. 1979, 171, 29-36).
The partition parameter RM between the lipid phase and the aqueous phase was calculated both for the derivatives and for the non-substituted alkanolamides, from the Rf value obtained by thin-film chromatography on silica gel (particles of […], mean porosity 60 Å, thickness 0.25 mm on glass plate) in accordance with the formula: RM=log (1/Rf−1) and the ΔRM was obtained from the difference between the RM coefficients of the derivative and of the corresponding alkanolamide.

CB2 receptor [4] = target: T1, CB2 receptor; assay: Stimulation of cyclic AMP (cAMP) by forskolin in RBL-2H3+ cells; assay type: cell-based; conditions: 1 μM forskolin
Method: Effect of alkanolamide molecules on the stimulation of cyclic AMP (cAMP) by forskolin.
The tests were performed with the aim of checking whether the binding of the molecules of the present invention to the CB2 receptor has functional significance.
It is in fact known that the function activation of the CB2 receptor brings about, at intracellular level, inhibition of the enzymatic activity of adenylate cyclase and a reduction in the levels of the second-messenger cAMP, resulting in an increase in the conductance of the channels to potassium and an inhibition of proteic phosphorylation (Childers S. R. et al. Biochem. Parmacol. 1996, 52: 819-827).
The dosages of cAMP were performed on RBL-2H3+ cells flowing together in Petri dishes with six wells (Falcon); the cells were stimulated for 10′ at 37° C. with 1 μM of forskolin (Fluka) in 400 μl of medium without serum, containing 20 mM HEPES, 0.1 mg/ml BSA and 0.1 mM 1-methyl-3-isobutyl xanthine (Sigma) and either ethanol or alkanolamide molecules with or without the addition of HU-210. After incubation, the cells were extracted and the levels of cAMP were evaluated with a suitable Amersham kit in accordance with the producer's method. The data were expressed in IC50 μM.

CB1 receptor = target: T2, CB1 receptor (Mus musculus, UniProt P47746); assay: Binding of [3H]SR141716A to membranes of N18TG2 cells; conditions: cell membranes, 300 pM ligand, 90' at 30° C.; read-out: Ki CB1 Receptor N18TG2 cells Lig. [3H]SR141716A
T2 construct: endogenous in cells; host or cells: mouse N18TG2 neuroblastoma cells
Text: as §1, §2
SR141716A was used as the selective antagonist for the CB1 receptor.
as §3, §4, §5

T2 sequence (P47746 whole entry): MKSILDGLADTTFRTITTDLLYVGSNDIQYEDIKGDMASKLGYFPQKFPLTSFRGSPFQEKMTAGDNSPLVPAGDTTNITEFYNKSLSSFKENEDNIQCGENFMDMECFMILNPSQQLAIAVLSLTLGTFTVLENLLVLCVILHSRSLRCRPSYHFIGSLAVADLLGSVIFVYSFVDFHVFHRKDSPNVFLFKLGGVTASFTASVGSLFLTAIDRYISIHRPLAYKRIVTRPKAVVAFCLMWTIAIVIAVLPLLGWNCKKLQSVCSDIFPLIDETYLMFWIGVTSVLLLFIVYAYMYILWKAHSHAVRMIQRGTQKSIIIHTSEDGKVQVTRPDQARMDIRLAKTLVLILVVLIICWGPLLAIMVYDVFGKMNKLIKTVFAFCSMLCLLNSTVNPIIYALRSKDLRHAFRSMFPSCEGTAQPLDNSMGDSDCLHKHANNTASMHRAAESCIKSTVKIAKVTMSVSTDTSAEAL

CCCCCCCCCCCCCCCC(=O)NCCOC(=O)NCC(=O)OCC [Example 6, N-[2-[(ethoxycarbonylmethyl)aminocarbonyl]oxyethyl] hexadecanamide]
solubility in water [1]: slightly soluble
solubility (physchem; ethanol): 10000 µg/mL (≈ 23.3 mM)
solubility (physchem; n-octanol): 10000 µg/mL (≈ 23.3 mM)
Ki (CB2 receptor [2]): 1 ± 0.8 nM
ΔRM solvent 1 ([3]; Solvent 1: 100% ethyl acetate, RM of derivative minus RM of corresponding alkanolamide): −0.612
RM solvent 1 ([3]; Solvent 1: 100% ethyl acetate, RM=log (1/Rf−1)): 0.176
RF solvent 1 ([3]; Solvent 1: 100% ethyl acetate, silica gel): 0.40
ΔRM solvent 2 ([3]; Solvent 2: heptane:isopropanol:ethyl acetate:H2O 40:20:50:2, RM of derivative minus RM of corresponding alkanolamide): −0.175
RM solvent 2 ([3]; Solvent 2: heptane:isopropanol:ethyl acetate:H2O 40:20:50:2, RM=log (1/Rf−1)): −0.140
RF solvent 2 ([3]; Solvent 2: heptane:isopropanol:ethyl acetate:H2O 40:20:50:2, silica gel): 0.58
IC50 (CB2 receptor [4]; 10' at 37° C., read-out: IC50 on forskolin-stimulated cAMP): 1900 nM
IC50 (CB2 receptor [4]; + HU-210 (0.5 μM), read-out: IC50 on forskolin-stimulated cAMP with HU-210): > 20000 nM
Ki (CB1 receptor): > 15000 nM
